Assay results published in BindingDB's records for doi:10.1016/j.bioorg.2013.09.002 (Ewha Womans University, 2013).
Where a SMILES comes first, the peptide text is derived from it. The star is where a group is joined. Cbz = O=C(OCc1ccccc1)*; CH2F = FC*

Tests used:
[1] = target: T1, Calpain-1 catalytic subunit (Homo sapiens, UniProt P07384); assay: µ-Calpain Inhibition Assay; details: pH 7.5; 25 °C
T1 sequence (P07384 whole entry): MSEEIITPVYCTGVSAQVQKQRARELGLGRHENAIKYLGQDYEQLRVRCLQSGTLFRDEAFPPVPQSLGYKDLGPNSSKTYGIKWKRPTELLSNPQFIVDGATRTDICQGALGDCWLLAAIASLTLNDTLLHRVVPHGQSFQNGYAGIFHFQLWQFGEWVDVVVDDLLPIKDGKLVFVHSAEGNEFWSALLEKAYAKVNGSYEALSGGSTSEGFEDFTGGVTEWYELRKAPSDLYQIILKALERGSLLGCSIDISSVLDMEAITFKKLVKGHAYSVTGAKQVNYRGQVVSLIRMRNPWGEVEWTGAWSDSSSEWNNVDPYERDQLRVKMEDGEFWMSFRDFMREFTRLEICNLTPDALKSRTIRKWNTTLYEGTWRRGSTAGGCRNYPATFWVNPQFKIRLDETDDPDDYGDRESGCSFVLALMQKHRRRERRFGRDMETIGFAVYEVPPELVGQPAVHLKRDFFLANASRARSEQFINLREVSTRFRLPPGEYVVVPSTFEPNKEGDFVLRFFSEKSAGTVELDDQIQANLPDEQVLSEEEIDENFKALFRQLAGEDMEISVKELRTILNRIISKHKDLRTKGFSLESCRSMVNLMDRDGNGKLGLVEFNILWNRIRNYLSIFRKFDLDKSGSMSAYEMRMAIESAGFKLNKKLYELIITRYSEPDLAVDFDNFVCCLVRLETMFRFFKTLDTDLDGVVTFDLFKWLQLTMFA
Description: The reaction was initiated by sequential addition of substrate A, µ-calpain, each compound, and finally a CaCl2 solution. The reaction mixture (100 µL) was incubated at room temperature for 30 min with shaking. Fluorescence intensities were measured at 320 nm excitation and 420 nm emission wavelengths.

[2] = target: T2, Calpain-2 catalytic subunit (Homo sapiens, UniProt P17655); assay: m-Calpain Inhibition Assay; details: pH 7.5; 25 °C
T2 sequence (P17655 whole entry): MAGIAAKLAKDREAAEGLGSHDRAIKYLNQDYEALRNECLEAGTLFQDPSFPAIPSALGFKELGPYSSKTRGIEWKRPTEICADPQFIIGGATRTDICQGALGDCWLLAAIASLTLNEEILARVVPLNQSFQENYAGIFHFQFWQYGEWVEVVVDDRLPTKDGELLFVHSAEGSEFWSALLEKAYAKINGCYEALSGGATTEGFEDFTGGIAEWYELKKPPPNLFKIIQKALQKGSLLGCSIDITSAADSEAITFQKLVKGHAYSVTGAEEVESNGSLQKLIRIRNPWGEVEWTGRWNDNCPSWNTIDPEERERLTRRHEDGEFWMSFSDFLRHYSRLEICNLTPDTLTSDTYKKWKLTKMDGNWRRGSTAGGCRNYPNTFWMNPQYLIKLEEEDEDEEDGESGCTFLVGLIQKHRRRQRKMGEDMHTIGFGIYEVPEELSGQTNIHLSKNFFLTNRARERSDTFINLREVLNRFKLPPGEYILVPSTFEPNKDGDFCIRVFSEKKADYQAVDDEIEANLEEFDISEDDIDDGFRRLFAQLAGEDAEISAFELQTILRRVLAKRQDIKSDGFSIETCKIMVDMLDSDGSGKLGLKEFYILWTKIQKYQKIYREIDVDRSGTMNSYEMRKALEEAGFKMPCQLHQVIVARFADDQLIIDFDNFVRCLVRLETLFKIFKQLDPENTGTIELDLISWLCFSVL
Description: Inhibition of m-calpain was assayed in the reaction buffer (50 mM Tris-HCl, 100 mM NaCl, 5 mM β-mercaptoethanol, and 1 mM EDTA, pH 7.5) with 50 µM substrate B, 5 mM CaCl2 and 2.88 U/mL m-calpain. The reaction was initiated by sequential addition of substrate B, m-calpain, each compound, and finally a CaCl2 solution. The reaction mixture (100 µL) was incubated at room temperature for 30 min with shaking. Fluorescence intensities were measured at 320 nm excitation and 420 nm emission wavelengths. MDL28170 was used as a positive control for µ- and m-calpain inhibition.

Procathepsin L = Procathepsin L (Homo sapiens, UniProt P07711); assay: Cathepsin L Inhibition Assay; details: pH 5.5; 37 °C
Sequence of Procathepsin L (P07711 whole entry): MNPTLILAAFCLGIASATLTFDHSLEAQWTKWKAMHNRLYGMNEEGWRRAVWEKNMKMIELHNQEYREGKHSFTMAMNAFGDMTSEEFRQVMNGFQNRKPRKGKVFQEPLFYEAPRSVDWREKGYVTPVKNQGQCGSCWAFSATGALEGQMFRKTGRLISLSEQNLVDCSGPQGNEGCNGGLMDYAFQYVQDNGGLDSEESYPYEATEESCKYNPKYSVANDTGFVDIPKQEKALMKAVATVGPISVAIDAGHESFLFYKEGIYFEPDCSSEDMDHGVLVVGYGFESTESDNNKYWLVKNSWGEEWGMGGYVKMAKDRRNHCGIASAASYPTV
Description: Inhibition of cathepsin L was assayed in reaction buffer (0.1M NaOAc-HCl, 1 mM EDTA, 0.1% β-mercaptoethanol, pH 5.5) containing 20 µM substrate and 4 nM cathepsin L. Z-FR-AMC was used as a substrate for […]. Cathepsin L was activated by incubation in assay buffer at 37 °C for 30 min prior to initiation of the reaction by addition of the substrate and test compound. The reaction mixture was then incubated at room temperature for 30 min with shaking. Fluorescence intensities were measured at 360 nm excitation and 450 nm emission wavelengths.

Compound `O=C(/C=C/c1cccnc1)c1ccc(O)cc1O` [1-(2,4-Dihydroxyphenyl)-3-(pyridin-3-yl)propenone (7)] has an IC50 [1] of over 100 µM, an IC50 [2] of over 100 µM and an IC50 (Procathepsin L) of over 100 µM.

Compound `O=C(/C=C/c1cccs1)c1ccc(O)cc1O` [1-(2,4-Dihydroxyphenyl)-3-(thiophen-2-yl)propenone (9)] has an IC50 [1] of 56.2 µM, an IC50 [2] of 39.9 µM and an IC50 (Procathepsin L) of 53 µM.

`O=C(NC(Cc1ccccc1)C(=O)NC(Cc1ccccc1)C(=O)CF)OCc1ccccc1` (stereo not drawn) [benzyl N-[1-[(4-fluoro-3-oxo-1-phenylbutan-2-yl)amino]-1-oxo-3-phenylpropan-2-yl]carbamate] (Cbz-Phe-Phe-CH2F; configuration not given here) gave an IC50 [1] of 0.397 µM and an IC50 [2] of 0.418 µM.

Work on `O=C(/C=C/c1ccco1)c1ccc(O)cc1O` [1-(2,4-Dihydroxyphenyl)-3-(furan-2-yl)propenone (10)] yielded an IC50 [1] of 86.7 µM, an IC50 [2] of 25.4 µM and an IC50 (Procathepsin L) of 90.5 µM.

In the case of `O=C(/C=C/c1ccccn1)c1ccc(O)cc1O` [1-(2,4-Dihydroxyphenyl)-3-(pyridin-2-yl)propenone (8)], the IC50 [1] is reported as over 100 µM, the IC50 [2] is reported as over 100 µM and the IC50 (Procathepsin L) is reported as over 100 µM.

In the case of `O=C(/C=C/c1ccoc1)c1cc(O)cc(O)c1` [1-(3,5-Dihydroxyphenyl)-3-(furan-3-yl)propenone (24)], the IC50 [1] is reported as over 100 µM, the IC50 [2] is reported as over 100 µM and the IC50 (Procathepsin L) is reported as over 100 µM.

With `O=C(/C=C/c1ccncc1)c1ccc(O)cc1O` [1-(2,4-Dihydroxyphenyl)-3-(pyridin-4-yl)propenone (6)] the IC50 [1] was over 100 µM, the IC50 [2] was over 100 µM and the IC50 (Procathepsin L) was 44.4 µM.

For `CCCNC(=O)[C@H]1O[C@@H]1C(=O)N[C@H](C(=O)N1CCC[C@H]1C(=O)O)[C@@H](C)CC` [CA074], the IC50 [1] was over 100 µM and the IC50 [2] was over 100 µM.

Compound `CC(C)C(NC(=O)OCc1ccccc1)C(=O)NC(C=O)Cc1ccccc1` [benzyl N-[(1S)-2-methyl-1-[(1-oxo-3-phenylpropan-2-yl)carbamoyl]propyl]carbamate] (Cbz-Val-Phe-aldehyde; configuration not given here) has an IC50 [2] of 0.15 µM.

Work on `O=C(/C=C/c1ccc(O)cc1O)c1cccs1` [3-(2,4-Dihydroxyphenyl)-1-(thiophen-2-yl)propenone (13)] yielded an IC50 [1] of over 100 µM, an IC50 [2] of 60.2 µM and an IC50 (Procathepsin L) of 2.8 µM.

`O=C(/C=C/c1cccs1)c1cc(O)cc(O)c1` [1-(3,5-Dihydroxyphenyl)-3-(thiophen-2-yl)propenone (20)] showed an IC50 [1] of over 100 µM, an IC50 [2] of over 100 µM and an IC50 (Procathepsin L) of over 100 µM.

In the case of `O=C(/C=C/c1ccc(O)cc1O)c1ccco1` [3-(2,4-Dihydroxyphenyl)-1-(furan-2-yl)propenone (14)], the IC50 [1] is reported as over 100 µM, the IC50 [2] is reported as over 100 µM and the IC50 (Procathepsin L) is reported as 2.87 µM.

Work on `O=C(/C=C/c1ccccc1)c1cc(O)cc(O)c1` [1-(3,5-Dihydroxyphenyl)-3-phenylpropenone (22)] yielded an IC50 [1] of over 100 µM, an IC50 [2] of over 100 µM and an IC50 (Procathepsin L) of over 100 µM.

Compound `O=C(/C=C/c1ccsc1)c1cc(O)cc(O)c1` [1-(3,5-Dihydroxyphenyl)-3-(thiophen-3-yl)propenone (23)] has an IC50 [1] of over 100 µM, an IC50 [2] of 97.3 µM and an IC50 (Procathepsin L) of over 100 µM.

In the case of `O=C(/C=C/c1ccco1)c1cc(O)cc(O)c1` [1-(3,5-Dihydroxyphenyl)-3-(furan-2-yl)propenone (21)], the IC50 [1] is reported as over 100 µM, the IC50 [2] is reported as over 100 µM and the IC50 (Procathepsin L) is reported as over 100 µM.
